Experimental data taken from the supplement of paper PMC10307832.

How the values were obtained:
Test in all cases: relative viability (nuclei count vs DMSO), 5 days (fraction); higher = more cells survive
Vorinostat + Linsitinib = compound: O=C(CCCCCCC(=O)Nc1ccccc1)NO [Vorinostat] + C[C@]1(O)C[C@@H](c2nc(-c3ccc4ccc(-c5ccccc5)nc4c3)c3c(N)nccn32)C1 [Linsitinib] (partner 1 µM)
How it was run: (§1)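 Relative viability was taken as the ratio of nuclei in treated wells to nuclei in vehicle wells. Lung cancer cell lines in 1536-well plates received compounds by pin tool one day after seeding, either one drug alone or a fixed anchor-drug dose plus five library-drug doses (not always all listed) in √10 steps. Nuclei were counted on 4× images after 5 days of treatment, and values are medians of duplicate plates.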

Vorinostat + Navitoclax = compound: O=C(CCCCCCC(=O)Nc1ccccc1)NO [Vorinostat] + CC1(C)CCC(c2ccc(Cl)cc2)=C(CN2CCN(c3ccc(C(=O)NS(=O)(=O)c4ccc(N[C@H](CCN5CCOCC5)CSc5ccccc5)c(S(=O)(=O)C(F)(F)F)c4)cc3)CC2)C1 [Navitoclax] (partner 0.5 µM)
How it was run: as §1

Vorinostat + Lapatinib = compound: O=C(CCCCCCC(=O)Nc1ccccc1)NO [Vorinostat] + CS(=O)(=O)CCNCc1ccc(-c2ccc3ncnc(Nc4ccc(OCc5cccc(F)c5)c(Cl)c4)c3c2)o1 [Lapatinib] (partner 2 µM)
How it was run: as §1

Vorinostat + Decitabine = compound: O=C(CCCCCCC(=O)Nc1ccccc1)NO [Vorinostat] + Nc1ncn([C@H]2C[C@H](O)[C@@H](CO)O2)c(=O)n1 [Decitabine] (partner 2 µM)
How it was run: as §1

Cell Line | relative viability (Vorinostat + Linsitinib; first compound 0.253 µM) | relative viability (Vorinostat + Linsitinib; first compound 0.8 µM) | relative viability (Vorinostat + Linsitinib; first compound 2.53 µM) | relative viability (Vorinostat + Linsitinib; first compound 8 µM) | relative viability (Vorinostat + Navitoclax; first compound 0.253 µM) | relative viability (Vorinostat + Navitoclax; first compound 0.8 µM) | relative viability (Vorinostat + Navitoclax; first compound 2.53 µM) | relative viability (Vorinostat + Navitoclax; first compound 8 µM) | relative viability (Vorinostat + Lapatinib; first compound 0.253 µM) | relative viability (Vorinostat + Lapatinib; first compound 0.8 µM) | relative viability (Vorinostat + Lapatinib; first compound 2.53 µM) | relative viability (Vorinostat + Lapatinib; first compound 8 µM) | relative viability (Vorinostat + Decitabine; first compound 0.253 µM) | relative viability (Vorinostat + Decitabine; first compound 0.8 µM) | relative viability (Vorinostat + Decitabine; first compound 2.53 µM) | relative viability (Vorinostat + Decitabine; first compound 8 µM)
NCI-H1793 | 0.781 | 0.95 | 0.703 | 0.215 | 0.534 | 0.521 | 0.186 | 0.118 | 0.588 | 0.613 | 0.375 | 0.162 | 0.596 | 0.504 | 0.38 | 0.165
EPLC-272H | 1.17 | 1.13 | 0.361 | 0.156 | 0.984 | 1 | 0.242 | 0.0967 | 0.788 | 0.761 | 0.278 | 0.14 | 0.309 | 0.338 | 0.189 | 0.152
NCI-H1792 | 0.57 | 0.376 | 0.148 | 0.0672 | 0.763 | 0.601 | 0.392 | 0.0388 | 0.964 | 0.904 | 0.907 | 0.0753 | 0.414 | 0.413 | 0.163 | 0.0341
NCI-H1395 | 1.31 | 1.22 | 0.725 | 0.344 | 1.14 | 1.26 | 0.693 | 0.387 | 1.26 | 0.906 | 0.671 | 0.371 | 0.857 | 0.69 | 0.565 | 0.343
NCI-H2087 | 0.974 | 1.03 | 0.474 | 0.159 | 1.05 | 0.959 | 0.238 | 0.189 | 1.23 | 0.962 | 0.352 | 0.178 | 0.271 | 0.207 | 0.105 | 0.051
PC-14 | 1.01 | 0.911 | 0.323 | 0.112 | 1.16 | 0.985 | 0.198 | 0.091 | 0.36 | 0.251 | 0.135 | 0.0961 | 0.227 | 0.19 | 0.0705 | 0.06
LXF-289 | 1.03 | 0.994 | 0.391 | 0.108 | 1.04 | 0.963 | 0.279 | 0.0872 | 0.985 | 0.859 | 0.468 | 0.116 | 0.328 | 0.37 | 0.229 | 0.0489
NCI-H23 | 0.866 | 0.711 | 0.21 | 0.124 | 1.06 | 0.89 | 0.25 | 0.142 | 1.24 | 1.03 | 0.344 | 0.141 | 0.299 | 0.241 | 0.139 | 0.155
NCI-H322M | 1.04 | 1.01 | 0.51 | 0.275 | 1.33 | 1.32 | 0.836 | 0.249 | 0.733 | 0.608 | 0.522 | 0.352 | 0.679 | 1.1 | 0.622 | 0.373
NCI-H1651 | 1.01 | 0.762 | 0.0741 | 0.0616 | 1.12 | 0.732 | 0.0917 | 0.0643 | 1.07 | 0.532 | 0.108 | 0.0671 | 0.58 | 0.477 | 0.202 | 0.0686
NCI-H1755 | 1.07 | 1.05 | 0.512 | 0.188 | 1.01 | 0.98 | 0.369 | 0.215 | 1.05 | 1.03 | 0.28 | 0.154 | 0.703 | 0.773 | 0.44 | 0.213
A549 | 0.673 | 0.651 | 0.194 | 0.0382 | 1.31 | 1.08 | 0.352 | 0.0351 | 1.02 | 0.572 | 0.168 | 0.0602 | 0.224 | 0.302 | 0.256 | 0.0174
LU99A | 0.429 | 0.465 | 0.27 | 0.117 | 0.653 | 0.553 | 0.172 | 0.0974 | 1.01 | 0.871 | 0.315 | 0.169 | 0.949 | 0.702 | 0.389 | 0.156
NCI-H1975 | 0.987 | 0.8 | 0.294 | 0.145 | 1.23 | 0.839 | 0.308 | 0.146 | 1.16 | 0.787 | 0.303 | 0.117 | 0.435 | 0.441 | 0.165 | 0.113
LOU-NH91 | 1.1 | 0.901 | 0.547 | 0.338 | 0.791 | 0.568 | 0.313 | 0.233 | 0.843 | 0.799 | 0.688 | 0.346 | 0.845 | 0.854 | 0.702 | 0.45
HOP-62 | 1.17 | 0.769 | 0.528 | 0.0603 | 0.969 | 0.779 | 0.215 | 0.0581 | 1.25 | 0.572 | 0.516 | 0.0547 | 0.17 | 0.209 | 0.169 | 0.0871
